Article PMC9234961 (Journal of Medicinal Chemistry, 2022)
Where two headings read alike, the source gives them in different places.

Assays:
kinases (468) [1] = target: kinases (468) (Homo sapiens, UniProt Q96PN8); details: kinase TSSK3 (Entrez TSSK3); compound concentration 1000 nM
kinases (468) [2] = target: kinases (468) (Homo sapiens, UniProt P08581, M1250T); details: MET(M1250T); 1000 nM
kinases (468) [3] = target: kinases (468) (Homo sapiens, UniProt Q52WX2); details: kinase SBK1 (Entrez SBK1); compound concentration 1000 nM
Chain of kinases (468) (Homo sapiens, UniProt Q52WX2) (Q52WX2 whole entry): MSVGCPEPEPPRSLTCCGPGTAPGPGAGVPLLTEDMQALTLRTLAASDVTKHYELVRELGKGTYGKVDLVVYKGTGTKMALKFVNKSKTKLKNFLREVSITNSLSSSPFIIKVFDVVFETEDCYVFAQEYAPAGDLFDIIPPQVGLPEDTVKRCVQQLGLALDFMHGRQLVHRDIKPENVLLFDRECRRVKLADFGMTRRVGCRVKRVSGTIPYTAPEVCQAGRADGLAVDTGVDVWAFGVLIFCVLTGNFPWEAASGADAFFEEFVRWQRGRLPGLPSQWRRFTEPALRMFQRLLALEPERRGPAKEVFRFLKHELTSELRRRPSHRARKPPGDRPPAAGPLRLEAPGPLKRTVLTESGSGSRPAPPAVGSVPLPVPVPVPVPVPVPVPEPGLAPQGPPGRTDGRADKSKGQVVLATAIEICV

kinases (468) [4] = target: kinases (468) (Homo sapiens, UniProt Q6ZWH5); details: NEK10; 1000 nM
kinases (468) [5] = target: kinases (468) (Homo sapiens, UniProt O95819); details: MAP4K4; 1000 nM
kinases (468) [6] = target: kinases (468) (Homo sapiens, UniProt Q9UK32); details: compound concentration 1000 nM
Chain of kinases (468) (Homo sapiens, UniProt Q9UK32) (Q9UK32 whole entry): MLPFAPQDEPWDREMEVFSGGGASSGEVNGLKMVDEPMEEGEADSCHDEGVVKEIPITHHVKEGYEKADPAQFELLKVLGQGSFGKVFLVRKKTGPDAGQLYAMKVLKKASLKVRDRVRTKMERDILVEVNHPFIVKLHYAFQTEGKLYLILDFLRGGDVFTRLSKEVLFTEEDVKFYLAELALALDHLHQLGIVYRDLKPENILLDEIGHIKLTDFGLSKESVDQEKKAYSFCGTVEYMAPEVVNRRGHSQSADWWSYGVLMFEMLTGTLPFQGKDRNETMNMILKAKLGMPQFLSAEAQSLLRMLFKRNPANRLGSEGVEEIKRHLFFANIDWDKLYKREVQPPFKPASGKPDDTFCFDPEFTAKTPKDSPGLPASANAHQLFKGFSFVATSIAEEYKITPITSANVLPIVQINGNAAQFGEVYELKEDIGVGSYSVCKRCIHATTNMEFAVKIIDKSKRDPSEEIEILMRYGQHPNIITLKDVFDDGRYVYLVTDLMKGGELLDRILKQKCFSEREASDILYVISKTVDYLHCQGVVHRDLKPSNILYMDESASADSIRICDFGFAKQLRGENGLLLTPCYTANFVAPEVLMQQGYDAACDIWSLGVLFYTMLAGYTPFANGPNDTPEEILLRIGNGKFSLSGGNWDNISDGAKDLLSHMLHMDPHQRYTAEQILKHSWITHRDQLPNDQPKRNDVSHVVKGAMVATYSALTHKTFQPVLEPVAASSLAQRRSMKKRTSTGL

kinases (468) [7] = target: kinases (468) (Homo sapiens, UniProt Q9HCP0); details: CSNK1G1; 1000 nM
kinases (468) [8] = target: kinases (468) (Homo sapiens, UniProt Q06187); details: BTK; 1000 nM
kinases (468) [9] = target: kinases (468) (Homo sapiens, UniProt Q9UHD2); details: kinase TBK1 (Entrez TBK1); compound concentration 1000 nM
kinases (468) [10] = target: kinases (468) (Homo sapiens, UniProt Q14680); details: MELK; 1000 nM
Chain of kinases (468) (Homo sapiens, UniProt Q14680) (Q14680 whole entry): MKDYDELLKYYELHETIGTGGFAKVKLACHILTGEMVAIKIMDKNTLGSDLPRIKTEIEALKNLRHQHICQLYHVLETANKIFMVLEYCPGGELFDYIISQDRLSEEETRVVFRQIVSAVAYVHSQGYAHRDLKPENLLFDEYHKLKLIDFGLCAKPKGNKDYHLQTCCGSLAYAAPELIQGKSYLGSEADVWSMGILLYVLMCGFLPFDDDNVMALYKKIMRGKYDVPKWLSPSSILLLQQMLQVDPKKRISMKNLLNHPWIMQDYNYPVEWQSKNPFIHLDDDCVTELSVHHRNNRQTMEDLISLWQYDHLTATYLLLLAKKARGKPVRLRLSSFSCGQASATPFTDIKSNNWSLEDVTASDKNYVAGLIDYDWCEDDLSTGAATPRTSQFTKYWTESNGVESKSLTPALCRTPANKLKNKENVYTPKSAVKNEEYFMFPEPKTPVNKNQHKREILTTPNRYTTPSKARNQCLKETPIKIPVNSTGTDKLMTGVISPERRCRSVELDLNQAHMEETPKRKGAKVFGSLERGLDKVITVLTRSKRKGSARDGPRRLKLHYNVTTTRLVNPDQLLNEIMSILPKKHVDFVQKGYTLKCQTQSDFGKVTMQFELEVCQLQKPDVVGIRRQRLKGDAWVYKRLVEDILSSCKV

kinases (468) [11] = target: kinases (468) (Homo sapiens, UniProt Q8N4C8); details: MINK (MINK1); 1000 nM
Chain of kinases (468) (Homo sapiens, UniProt Q8N4C8) (Q8N4C8 whole entry): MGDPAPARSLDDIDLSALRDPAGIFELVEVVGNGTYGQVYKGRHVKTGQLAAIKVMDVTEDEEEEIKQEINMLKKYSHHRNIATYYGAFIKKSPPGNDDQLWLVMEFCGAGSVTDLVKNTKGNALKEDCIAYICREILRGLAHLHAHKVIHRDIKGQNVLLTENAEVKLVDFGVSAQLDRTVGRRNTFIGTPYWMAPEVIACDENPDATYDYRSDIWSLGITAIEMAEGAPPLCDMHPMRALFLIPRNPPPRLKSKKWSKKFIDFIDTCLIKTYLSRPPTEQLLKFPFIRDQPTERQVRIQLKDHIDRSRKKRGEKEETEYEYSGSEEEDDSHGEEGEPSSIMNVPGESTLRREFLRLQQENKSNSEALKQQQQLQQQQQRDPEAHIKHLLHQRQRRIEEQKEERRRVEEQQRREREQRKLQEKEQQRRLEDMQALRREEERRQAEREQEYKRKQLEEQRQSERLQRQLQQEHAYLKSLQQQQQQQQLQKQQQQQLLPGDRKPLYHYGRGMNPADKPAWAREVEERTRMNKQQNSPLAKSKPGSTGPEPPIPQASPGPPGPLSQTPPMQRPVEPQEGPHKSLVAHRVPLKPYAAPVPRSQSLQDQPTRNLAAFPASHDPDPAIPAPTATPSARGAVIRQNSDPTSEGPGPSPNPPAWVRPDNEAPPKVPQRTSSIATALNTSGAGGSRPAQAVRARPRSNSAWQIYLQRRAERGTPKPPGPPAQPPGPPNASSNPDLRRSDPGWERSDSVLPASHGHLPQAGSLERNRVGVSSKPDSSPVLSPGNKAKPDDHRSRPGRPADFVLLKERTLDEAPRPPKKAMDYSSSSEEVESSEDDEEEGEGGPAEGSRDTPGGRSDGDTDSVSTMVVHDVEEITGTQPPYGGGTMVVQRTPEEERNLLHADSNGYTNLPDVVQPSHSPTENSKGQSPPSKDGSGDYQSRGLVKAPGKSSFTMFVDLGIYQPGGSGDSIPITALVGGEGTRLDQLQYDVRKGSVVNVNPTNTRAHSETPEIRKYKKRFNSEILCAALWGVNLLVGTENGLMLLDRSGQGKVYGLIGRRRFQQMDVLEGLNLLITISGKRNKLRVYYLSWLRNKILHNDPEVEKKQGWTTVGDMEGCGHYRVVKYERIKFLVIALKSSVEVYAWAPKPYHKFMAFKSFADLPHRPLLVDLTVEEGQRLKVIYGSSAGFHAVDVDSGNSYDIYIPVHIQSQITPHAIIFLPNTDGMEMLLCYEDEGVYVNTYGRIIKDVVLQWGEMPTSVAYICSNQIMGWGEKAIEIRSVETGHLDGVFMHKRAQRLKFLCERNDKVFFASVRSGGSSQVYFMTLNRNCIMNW

kinases (468) [12] = target: kinases (468) (Homo sapiens, UniProt P43403); details: kinase ZAP70 (Entrez ZAP70); compound concentration 1000 nM
kinases (468) [13] = target: kinases (468) (Homo sapiens, UniProt Q9Y4K4); details: MAP4K5; 1000 nM
kinases (468) [14] = target: kinases (468) (Homo sapiens, UniProt Q99558); details: NIK (MAP3K14); 1000 nM
kinases (468) [15] = target: kinases (468) (Homo sapiens, UniProt P50750); details: CDK9; 1000 nM
kinases (468) [16] = target: kinases (468) (Homo sapiens, UniProt Q8TDR2); details: kinase STK35 (Entrez STK35); compound concentration 1000 nM
kinases (468) [17] = target: kinases (468) (Homo sapiens, UniProt O14730); details: kinase RIOK3 (Entrez RIOK3); compound concentration 1000 nM
kinases (468) [18] = target: kinases (468) (Homo sapiens, UniProt P15735); details: PHKG2; 1000 nM
kinases (468) [19] = target: kinases (468) (Homo sapiens, UniProt P35626); details: GRK3 (ADRBK2); 1000 nM
kinases (468) [20] = target: kinases (468) (Homo sapiens, UniProt Q86Z02); details: HIPK1; 1000 nM
kinases (468) [21] = target: kinases (468) (Homo sapiens, UniProt Q96SB4); details: kinase SRPK1 (Entrez SRPK1); compound concentration 1000 nM
kinases (468) [22] = target: kinases (468) (Homo sapiens, UniProt Q13557); details: CAMK2D; 1000 nM
kinases (468) [23] = target: kinases (468) (Homo sapiens, UniProt P54760); details: EPHB4; 1000 nM
kinases (468) [24] = target: kinases (468) (Homo sapiens, UniProt Q8NI60); details: ADCK3 (CABC1); 1000 nM
kinases (468) [25] = target: kinases (468) (Homo sapiens, UniProt P0C1S8); details: kinase WEE2 (Entrez WEE2); compound concentration 1000 nM
kinases (468) [26] = target: kinases (468) (Homo sapiens, UniProt P42336, H1047L); details: PIK3CA(H1047L); 1000 nM
Chain of kinases (468) (Homo sapiens, UniProt P42336, H1047L) (P42336 whole entry H1047L): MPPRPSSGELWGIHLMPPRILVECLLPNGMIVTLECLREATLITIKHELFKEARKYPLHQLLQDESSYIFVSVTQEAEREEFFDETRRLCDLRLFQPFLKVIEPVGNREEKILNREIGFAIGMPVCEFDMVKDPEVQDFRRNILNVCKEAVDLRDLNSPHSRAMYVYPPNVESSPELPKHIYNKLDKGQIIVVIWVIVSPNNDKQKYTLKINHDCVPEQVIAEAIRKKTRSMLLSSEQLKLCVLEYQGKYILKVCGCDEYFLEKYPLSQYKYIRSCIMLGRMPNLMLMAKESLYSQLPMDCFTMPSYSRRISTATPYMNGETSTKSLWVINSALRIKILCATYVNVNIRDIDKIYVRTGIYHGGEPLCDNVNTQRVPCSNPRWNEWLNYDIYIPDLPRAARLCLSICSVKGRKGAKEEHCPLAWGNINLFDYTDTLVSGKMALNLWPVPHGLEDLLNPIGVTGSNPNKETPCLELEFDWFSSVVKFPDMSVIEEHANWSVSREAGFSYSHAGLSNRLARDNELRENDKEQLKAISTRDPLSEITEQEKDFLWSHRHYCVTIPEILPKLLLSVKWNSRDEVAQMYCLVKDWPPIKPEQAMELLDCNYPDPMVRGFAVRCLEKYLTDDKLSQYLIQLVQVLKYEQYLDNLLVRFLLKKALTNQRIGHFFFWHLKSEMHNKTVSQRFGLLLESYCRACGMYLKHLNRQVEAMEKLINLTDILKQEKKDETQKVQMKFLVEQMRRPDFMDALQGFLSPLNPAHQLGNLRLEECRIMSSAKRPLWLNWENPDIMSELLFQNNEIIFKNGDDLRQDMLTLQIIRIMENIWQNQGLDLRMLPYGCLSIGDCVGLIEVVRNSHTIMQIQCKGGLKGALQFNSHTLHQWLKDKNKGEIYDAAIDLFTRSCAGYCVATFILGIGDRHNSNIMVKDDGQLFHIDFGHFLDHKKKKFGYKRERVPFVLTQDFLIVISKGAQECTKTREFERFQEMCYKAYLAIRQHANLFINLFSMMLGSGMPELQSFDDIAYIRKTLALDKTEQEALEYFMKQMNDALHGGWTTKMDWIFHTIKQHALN

kinases (468) [27] = target: kinases (468) (Homo sapiens, UniProt Q04912); details: MST1R; 1000 nM
kinases (468) [28] = target: kinases (468) (Homo sapiens, UniProt P04626); details: ERBB2; 1000 nM
kinases (468) [29] = target: kinases (468) (Homo sapiens, UniProt O75385); details: kinase ULK1 (Entrez ULK1); compound concentration 1000 nM
kinases (468) [30] = target: kinases (468) (Homo sapiens, UniProt Q9H3Y6); details: kinase SRMS (Entrez SRMS); compound concentration 1000 nM
kinases (468) [31] = target: kinases (468) (Homo sapiens, UniProt P80192); details: MLK1 (MAP3K9); 1000 nM
kinases (468) [32] = target: kinases (468) (Homo sapiens, UniProt Q15418); details: compound concentration 1000 nM
Chain of kinases (468) (Homo sapiens, UniProt Q15418) (Q15418 whole entry): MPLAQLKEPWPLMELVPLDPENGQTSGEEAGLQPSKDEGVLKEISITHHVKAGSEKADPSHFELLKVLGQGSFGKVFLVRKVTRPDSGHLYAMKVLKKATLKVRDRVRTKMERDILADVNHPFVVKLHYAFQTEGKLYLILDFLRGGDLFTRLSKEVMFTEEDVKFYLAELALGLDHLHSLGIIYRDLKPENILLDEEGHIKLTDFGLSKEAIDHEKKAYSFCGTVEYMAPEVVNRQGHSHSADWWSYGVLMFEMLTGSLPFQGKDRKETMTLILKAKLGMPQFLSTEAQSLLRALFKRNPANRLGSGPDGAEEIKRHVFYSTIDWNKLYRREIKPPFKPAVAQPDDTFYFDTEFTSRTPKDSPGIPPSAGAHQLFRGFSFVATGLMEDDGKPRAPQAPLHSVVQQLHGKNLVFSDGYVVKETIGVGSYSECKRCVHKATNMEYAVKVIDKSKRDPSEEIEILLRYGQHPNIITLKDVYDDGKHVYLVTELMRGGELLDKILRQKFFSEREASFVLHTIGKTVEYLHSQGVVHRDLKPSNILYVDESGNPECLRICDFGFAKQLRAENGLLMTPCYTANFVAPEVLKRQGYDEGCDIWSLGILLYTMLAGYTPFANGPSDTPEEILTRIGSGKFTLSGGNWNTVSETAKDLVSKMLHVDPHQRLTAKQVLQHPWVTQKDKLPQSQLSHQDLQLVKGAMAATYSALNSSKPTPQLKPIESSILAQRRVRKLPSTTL

kinases (468) [33] = target: kinases (468) (Homo sapiens, UniProt Q9BQI3); details: EIF2AK1; 1000 nM

C[C@H]1C[C@@H](O)CN(c2ncc(Cl)c(Nc3ccc4c(c3)c3c(c(=O)n4C)OCC(F)(F)[C@H](C4CC4)N3)n2)C1 [CCT373566_9A]
Percent Control (kinases (468) [1]): 72%
Percent Control (kinases (468) [2]): 100%
Percent Control (kinases (468) [3]): 99%
Percent Control (kinases (468) [4]): 99%
Percent Control (kinases (468) [5]): 87%
Percent Control (kinases (468) [6]; kinase RSK4(Kin.Dom.1-N-terminal) (Entrez RPS6KA6)): 90%
Percent Control (kinases (468) [6]; kinase RSK4(Kin.Dom.2-C-terminal) (Entrez RPS6KA6)): 88%
Percent Control (kinases (468) [7]): 97%
Percent Control (kinases (468) [8]): 100%
Percent Control (kinases (468) [9]): 100%
Percent Control (kinases (468) [10]): 100%
Percent Control (kinases (468) [11]): 87%
Percent Control (kinases (468) [12]): 100%
Percent Control (kinases (468) [13]): 85%
Percent Control (kinases (468) [14]): 83%
Percent Control (kinases (468) [15]): 96%
Percent Control (kinases (468) [16]): 99%
Percent Control (kinases (468) [17]): 85%
Percent Control (kinases (468) [18]): 100%
Percent Control (kinases (468) [19]): 100%
Percent Control (kinases (468) [20]): 98%
Percent Control (kinases (468) [21]): 83%
Percent Control (kinases (468) [22]): 88%
Percent Control (kinases (468) [23]): 100%
Percent Control (kinases (468) [24]): 100%
Percent Control (kinases (468) [25]): 93%
Percent Control (kinases (468) [26]): 84%
Percent Control (kinases (468) [27]): 91%
Percent Control (kinases (468) [28]): 94%
Percent Control (kinases (468) [29]): 93%
Percent Control (kinases (468) [30]): 90%
Percent Control (kinases (468) [31]): 100%
Percent Control (kinases (468) [32]; kinase RSK1(Kin.Dom.1-N-terminal) (Entrez RPS6KA1)): 95%
Percent Control (kinases (468) [32]; kinase RSK1(Kin.Dom.2-C-terminal) (Entrez RPS6KA1)): 90%
Percent Control (kinases (468) [33]): 72%
